Measured values reported in BindingDB's records for doi:10.1074/jbc.M114.558353 (Harvard School of Public Health, 2014).

Columns and labels:
[1] = biological target: Dihydroorotate dehydrogenase (quinone), mitochondrial (Homo sapiens, UniProt Q02127); test: DHODH Biochemical Assay
[2] = biological target: T1, Dihydroorotate dehydrogenase (quinone), mitochondrial (Plasmodium falciparum (isolate 3D7), UniProt Q08210); test: DHODH Biochemical Assay
T1 sequence (Q08210 whole entry): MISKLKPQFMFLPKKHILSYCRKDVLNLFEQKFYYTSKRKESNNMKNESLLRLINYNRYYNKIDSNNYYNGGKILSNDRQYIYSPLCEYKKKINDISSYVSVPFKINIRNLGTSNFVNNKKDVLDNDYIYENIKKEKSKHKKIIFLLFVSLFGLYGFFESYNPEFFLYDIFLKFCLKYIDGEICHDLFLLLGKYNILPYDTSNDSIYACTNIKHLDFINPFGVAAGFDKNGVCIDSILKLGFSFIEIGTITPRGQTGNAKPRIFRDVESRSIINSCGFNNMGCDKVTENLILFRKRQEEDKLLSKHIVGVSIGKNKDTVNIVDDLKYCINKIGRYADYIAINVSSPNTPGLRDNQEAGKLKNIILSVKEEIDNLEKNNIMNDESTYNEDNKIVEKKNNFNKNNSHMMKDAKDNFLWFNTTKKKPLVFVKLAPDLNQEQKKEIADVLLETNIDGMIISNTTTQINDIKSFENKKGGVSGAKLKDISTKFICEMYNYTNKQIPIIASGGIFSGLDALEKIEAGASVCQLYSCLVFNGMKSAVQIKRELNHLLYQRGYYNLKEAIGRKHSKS

Dihydroorotate dehydrogenase (quinone), mitochondrial (Homo sapiens, UniProt Q02127), sequence (Q02127 whole entry): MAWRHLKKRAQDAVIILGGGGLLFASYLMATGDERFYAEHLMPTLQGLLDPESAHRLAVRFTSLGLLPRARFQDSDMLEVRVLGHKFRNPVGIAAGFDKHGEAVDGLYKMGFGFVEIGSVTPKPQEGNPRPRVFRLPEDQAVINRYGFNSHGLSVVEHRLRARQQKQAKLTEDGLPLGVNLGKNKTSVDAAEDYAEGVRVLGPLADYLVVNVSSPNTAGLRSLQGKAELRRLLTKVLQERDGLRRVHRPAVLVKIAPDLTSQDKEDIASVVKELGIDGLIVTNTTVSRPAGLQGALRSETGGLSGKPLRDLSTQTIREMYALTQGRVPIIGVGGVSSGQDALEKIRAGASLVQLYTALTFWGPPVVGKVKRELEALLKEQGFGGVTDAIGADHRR

**Q.** How did the IC50 [1] turn out when `CCSc1nnc(C2CCCN(CC(=O)Nc3cc(C(F)(F)F)ccc3Cl)C2)n1CC` (stereo not drawn) [GSK3] was run?
**A.** > 30 µM

**Q.** What about the IC50 [2] of the same compound?
**A.** 1.7 µM

**Q.** With `Cc1nnc2c3ccccc3c(N3CCc4ccccc4C3)nn12` [IDI-6253] as the compound, how does the IC50 [1] read?
**A.** 3.8 µM

**Q.** What about the IC50 [2] of the same compound?
**A.** 3.5 µM

**Q.** What does the source list for `Cc1nc2c(C#N)cccc2n1-c1ccc(C(=O)NC2CC2)s1`?
**A.** IC50 [1]: > 30 µM; IC50 [2]: 0.08 µM

**Q.** How did the IC50 [1] turn out when `CCOc1cccc(=O)c2c(C)n(Cc3ccc(Cl)cc3)c(C)c12` [IDI-6273] was run?
**A.** > 30 µM

**Q.** What about the IC50 [2] of the same compound?
**A.** 13.5 µM
